Measurements published in patent US20090068169A1, “2,4,6-triamino-s-triazine-based compounds which bind to the tail (fc) portion of immunoglobulins and their use” (priority 2004, published 2009).
Marks after values point to notes of the source that are not given here.

Key:
Fc portion of human IgG = biological target: T1, Fc portion of human IgG; test: Competitive protein A binding ELISA; settings: for IC50: inhibition of binding of protein A to HRP-human IgG, assay in PBS; for binding activity, in words: refers to Table 1, bis-aminoanilino arrangement
T1 construct: fused on or other part: horseradish peroxidase chemically conjugated to the IgG (detection label)
Experimental: The competitive protein A binding ELISA assay was performed on a 96-well plate MAXISORP® surface to enhance the binding of protein A to the bottom of the plate. The wells were coated with 100 μL of protein A (0.8 μg) and incubated overnight at 4° C. After incubation, unbound protein A was removed by three washes with phosphate buffer saline (PBS). The plate was then incubated with 100 μL/well of a 2% solution of bovine serum albumin (BSA) for 1 h at 37° C. to block non specific protein binding. After incubation, the plate was washed three times with PBS. 50 μL of compound or protein A, diluted in PBS or PBS-20% DMSO at appropriate concentration, were added to the wells followed by addition of 50 μL of peroxidase-conjugated human IgG (HRP-IgG). After 1 h incubation at 37° C., the plate was washed three times with PBS to remove unbound HRP-IgG. […] The plate was then read at 405 nm on a EL 800, universal microplate reader (Bio-Tek). Data was analyzed in Microsoft Excel and the concentration of compound which inhibits 50% binding of protein A (IC50) was calculated using Prism software.

[1] = system: oxazolone-induced delayed-type hypersensitivity (DTH) in mice; test: Oxazolone-induced delayed-type hypersensitivity (DTH); format: in vivo; settings: intravenous; for Activity (ear thickness inhibition) Second Challenge: second oxazolone challenge; for Activity (ear thickness inhibition) Second Challenge / Activity (ear thickness inhibition) First Challenge: n.s. = non significant effect; for inhibition of the inflammation after the second challenge of oxazolone: FIG. 2, second challenge; for Activity (ear thickness inhibition) First Challenge: first oxazolone challenge
Experimental: Compounds were tested for their ability to treat oxazolone-induced delayed-type hypersensitivity (DTH) in mice. On day 0, mice were sensitized with 100 μL of oxazolone in 5% acetone. On day 0, 1 and 2, mice were treated by intravenous administration of the vehicle (control) or methotrexate (MTX; positive control) or the compound at 50 mg/kg (compound 3) or 25 mg/kg (compound 1 or 10). Mice were challenged with an application of 50 μL of oxazolone on the surface of the right ear (first challenge, day 3; second challenge, day 10). Ear thickness was measured on day 4 to day 7, and on day 11 to 14. Redness and crust formation was also observed. Mice were sacrificed on day 14. TDTH (CD4) cells play an important role in regulating the intensity of the DTH response. Compounds may exert an inhibitory influence on the DTH response through its inhibition of T-cell activation and DNA, RNA and/or protein synthesis.

[2] = system: oxazolone-induced delayed-type hypersensitivity (DTH) in mice; test: as above; format: in vivo; settings: per os; for Activity (ear thickness inhibition) First Challenge: first oxazolone challenge; for Activity (ear thickness inhibition) Second Challenge: second oxazolone challenge, n.s. = non significant effect

Compound | IC50 (Fc portion of human IgG) [nM] | other results
CN(C[C@H](O)[C@@H](O)[C@H](O)[C@H](O)CO)c1nc(Nc2cccc(N)c2)nc(Nc2cccc(N)c2)n1 [Compound 35] | 37 | Activity (ear thickness inhibition) Second Challenge [1]: No effect
Nc1cccc(Nc2nc(NCCO)nc(NCc3ccccc3F)n2)c1 [Compound 43] | 86 | 
Nc1cccc(Nc2nc(NCCc3ccccc3N)nc(NCC3CC3)n2)c1 [Compound 38] | 312 | 
NCCNc1nc(NCCc2ccc(N)cc2)nc(Nc2cccc(N)c2)n1 [Compound 5] | 377 | oral activity on DTH [2]: oral activity; Activity (ear thickness inhibition) First Challenge [2]: ↓ per os (p = 0.008); Activity (ear thickness inhibition) Second Challenge [2]: ↓ (n.s.)
Nc1cccc(CNc2nc(Nc3cccc(N)c3)nc(Nc3cccc(N)c3)n2)c1 [Compound 12] | 3 | binding activity, in words (Fc portion of human IgG): potent binding activity
COc1cccc(Nc2nc(NCCN)nc(Nc3cccc(N)c3)n2)c1 [Compound 14] | 306 | 
Nc1ccc(CCNc2nc(Nc3cccc(N)c3)nc(Nc3cccc(N)c3)n2)cc1 [Compound 20] | 65 | 
Nc1ccc(CNc2nc(Nc3cccc(N)c3)nc(Nc3cccc(N)c3)n2)cc1 [Compound 13] | 1 | binding activity, in words (Fc portion of human IgG): potent binding activity
COc1ccc(Nc2nc(N)nc(Nc3cccc(N)c3)n2)cc1 [Compound 27] | 292 | 
Nc1ccc(CCNc2nc(NCCCCCCO)nc(Nc3cccc(N)c3)n2)cc1 [Compound 1] | 93 | inhibition of the inflammation after the second challenge of oxazolone [1]: significant inhibition of the inflammation; Activity (ear thickness inhibition) First Challenge [1]: No effect; oral activity on DTH [2]: oral activity; Activity (ear thickness inhibition) First Challenge [2]: ↓ per os (p = 0.003); Activity (ear thickness inhibition) Second Challenge [2]: ↓ (n.s.)*
Nc1cccc(Nc2nc(NCCO)nc(NCc3ccc(F)cc3)n2)c1 [Compound 42] | 39 | 
Nc1cccc(Nc2nc(NCCO)nc(Nc3cccc(N)c3)n2)c1 [Compound 34] | 42 | 
Protein A (Control): Staphylococcal protein A, cell-surface bacterial protein which binds the Fc (tail) portion of most antibodies [reference compound] | 187 | 
Nc1cccc(Nc2nc(NCCO)nc(Nc3ccc(F)cc3)n2)c1 [Compound 28] | 62 | Activity (ear thickness inhibition) First Challenge [1]: ↓ (n.s.)
Nc1cccc(Nc2nc(NCCO)nc(Nc3cccc(F)c3)n2)c1 [Compound 41] | 36 | 
Nc1cccc(Nc2nc(N)nc(NCc3ccccc3N)n2)c1 [Compound 18] | 97 | 
Nc1ccc(CCNc2nc(Nc3cccc(N)c3)nc(NC3CCCC3)n2)cc1 [Compound 9] | 131 | Activity (ear thickness inhibition) Second Challenge [1]: No effect
COc1cccc(Nc2nc(NCC3CC3)nc(Nc3cccc(N)c3)n2)c1 [Compound 24] | 243 | 
NCCCCCCNc1nc(Nc2cccc(N)c2)nc(Nc2cccc(N)c2)n1 [Compound 36] | 68 | 
Nc1cccc(CCNc2nc(NCC3CC3)nc(Nc3cccc(N)c3)n2)c1 [Compound 30] | 88 | 
COc1ccc(Nc2nc(NCC3CC3)nc(Nc3cccc(N)c3)n2)cc1 [Compound 25] | 75 | 

Compound | IC50 (Fc portion of human IgG) [nM] | other results
Nc1cccc(Nc2nc(N)nc(Nc3cccc(N)c3)n2)c1 [Compound 33] | 170 | 
Nc1cccc(Nc2nc(NCCCCO)nc(Nc3cccc(N)c3)n2)c1 [Compound 39] | 40 | 
Nc1ccc(CCNc2nc(Nc3cccc(N)c3)nc(NC3CCC3)n2)cc1 [Compound 8] | 53 | 
Nc1cccc(CNc2nc(N)nc(Nc3cccc(N)c3)n2)c1 [Compound 16] | 159 | Activity (ear thickness inhibition) First Challenge [1]: No effect; Activity (ear thickness inhibition) Second Challenge [1]: No effect
COc1cccc(Nc2nc(Nc3cccc(N)c3)nc(Nc3cccc(OC)c3)n2)c1 [Compound 45] | 469 | 
Nc1ccc(CNc2nc(NCCCCCCO)nc(Nc3cccc(N)c3)n2)cc1 [Compound 2] | 148 | Activity (ear thickness inhibition) Second Challenge [1]: No effect
NCCNc1nc(Nc2cccc(N)c2)nc(Nc2cccc(N)c2)n1 [Compound 21] | 114 | 
COc1ccc(Nc2nc(NCCO)nc(Nc3cccc(N)c3)n2)cc1 [Compound 23] | 86 | 
Nc1cccc(Nc2nc(NCCO)nc(Nc3ccc(Cl)cc3)n2)c1 [Compound 44] | 56 | 
COc1cccc(Nc2nc(NCCO)nc(Nc3cccc(N)c3)n2)c1 [Compound 22] | 63 | 
Nc1cccc(Nc2nc(NCCCCCCO)nc(Nc3cccc(N)c3)n2)c1 [Compound 19] | 15 | Activity (ear thickness inhibition) First Challenge [1]: ↓ (n.s.); Activity (ear thickness inhibition) Second Challenge [1]: No effect
NCCCCCCNc1nc(NCCc2ccc(N)cc2)nc(Nc2cccc(N)c2)n1 [Compound 4] | 300 | 
Nc1ccc(CCNc2nc(NCCCCO)nc(Nc3cccc(N)c3)n2)cc1 [Compound 3] | 106 | inhibition of the inflammation after the second challenge of oxazolone [1]: significant inhibition of the inflammation; oral activity on DTH [2]: oral activity; Activity (ear thickness inhibition) First Challenge [2]: ↓ per os (p = 0.03); Activity (ear thickness inhibition) Second Challenge [2]: ↓ (n.s.)
Nc1ccc(CCNc2nc(NCc3cccc(N)c3)nc(Nc3cccc(N)c3)n2)cc1 [Compound 10] | 106 | Activity (ear thickness inhibition) Second Challenge [1]: No effect; oral activity on DTH [2]: oral activity; Activity (ear thickness inhibition) First Challenge [2]: No effect per os
Nc1cccc(Nc2nc(Nc3cccc(N)c3)nc(NC3CC3)n2)c1 [Compound 32] | 38 | 
COc1ccc(Nc2nc(NCCN)nc(Nc3cccc(N)c3)n2)cc1 [Compound 15] | 415 | 
Nc1ccc(CCNc2nc(NCc3ccc(N)cc3)nc(Nc3cccc(N)c3)n2)cc1 [Compound 11] | 85 | 
Nc1ccc(CNc2nc(N)nc(Nc3cccc(N)c3)n2)cc1 [Compound 17] | 65 | 
Nc1cccc(Nc2nc(NCC3CC3)nc(Nc3cccc(N)c3)n2)c1 [Compound 31] | 38 | Activity (ear thickness inhibition) Second Challenge [1]: ↓ (n.s.)
Nc1cccc(Nc2nc(NCCO)nc(NCc3cccc(F)c3)n2)c1 [Compound 29] | 222 | 
COc1ccc(Nc2nc(Nc3cccc(N)c3)nc(NC3CC3)n2)cc1 [Compound 26] | 126 | 
